Assay [1] relates to rat Chronic Constriction Injury model (Bennett Model) of neuropathic pain. Description: Hargreaves test of thermal hyperalgesia (thermal paw withdrawal latency) in rat chronic constriction injury model. The format is in vivo, Wistar rat. The source says: The inventors evaluated the efficacy of a various alpha-2-adrenergic receptor agonists and compared them against saline in the rat Chronic Constriction Injury model (i.e., Bennett Model) using Wistar rats. […] The doses given would mimic those achievable by a continuous release drug depot containing a biodegradable polymer (7 rats in each group).
Each group received the treatment indicated above for total of 15 days and subjected to the following two tests: (1) the Hargreaves test on days 7 and 14; and (2) the von Frey test on days 8 and 15.
(§1) Results from another rat chronic constriction injury model study silimar to that discussed in Example 5, except some drug compositions having predominantly alpha 1 agonist activity and some drug compositions having predominantly alpha 2 agonist activity were given as indicated in the table below. The doses given would mimic those achievable by a continuous release drug depot containing a biodegradable polymer (7 rats in each group). […]
(§2) The inventors evaluated the efficacy of a various beta-2-adrenergic receptor agonists and compared them to clonidine (an alpha-2-agonist) and saline in the rat Chronic Constriction Injury model (i.e., Bennett Model) using Wistar rats.
Hargreaves tests were conducted on days 7 and 14; and von Frey tests were performed on days 8 and 15, where some drug compositions having predominantly beta-2 agonist activity were compared to clonidine a drug composition that has predominantly alpha-2 agonist activity and saline. The doses given would mimic those achievable by a continuous release drug depot containing a biodegradable polymer (7 rats in each group).
Each group received the treatment indicated above for total of 15 days and the following two tests: (1) the Hargreaves test on days 7 and 14; and (2) the von Frey test on days 8 and 15.

For assay [2] the test system is unchanged. Description: von Frey monofilament test of mechanical allodynia (mechanical threshold) in rat chronic constriction injury model. Format: in vivo, Wistar rat.
Excerpt: The inventors evaluated the efficacy of a various alpha-2-adrenergic receptor agonists and compared them against saline in the rat Chronic Constriction Injury model (i.e., Bennett Model) using Wistar rats. […] The doses given would mimic those achievable by a continuous release drug depot containing a biodegradable polymer (7 rats in each group). […]
as §1, §2
Hargreaves tests were conducted on days 7 and 14; […], where some drug compositions having predominantly beta-2 agonist activity were compared to clonidine a drug composition that has predominantly alpha-2 agonist activity and saline. The doses given would mimic those achievable by a continuous release drug depot containing a biodegradable polymer (7 rats in each group). […]

Where [3] appears, read: Example 5, FIG. 36, 100 micrograms/kg subcutaneous every day for 15 days, days 7 and 14.
Where [4] appears, read: Example 7, FIG. 40, 5 mg/kg subcutaneous every day for 15 days, day 14, vs saline.

Molecules are shown by their SMILES.

For `Clc1cccc(Cl)c1N=C1NCCN1` [clonidine, 2,6-dichloro-N-2-imidazolidinyldenebenzenamine], the “pain behavioral response for thermal hyperalgesia” value in assay [1] (Example 5, FIG. 36, 0.02 mg/kg subcutaneous every day for 15 days, days 7 and 14) was “statistically significant result of decreasing pain responses”; in assay [1] (Example 6, FIG. 37, 0.02 mg/kg subcutaneous every day for 15 days, days 7 and 14), “statistically significant result of decreasing pain responses”; in assay [1] (Example 7, FIG. 39, 0.02 mg/kg subcutaneous every day for 15 days, day 14, vs saline) it was “statistically significant result of decreasing pain responses”. For the same molecule, the “pain behavioral response for mechanical allodynia” value in assay [2] (Example 5, FIG. 35, 0.02 mg/kg subcutaneous every day for 15 days, day 15, vs saline) is “statistically significant results of decreasing pain responses”. For the same molecule, the “pain behavioral response (measured as a percentage of baseline) for mechanical allodynia” value in assay [2] (clonidine subcutaneously 0.02 mg/kg/day, compared to unloaded polymer depots, FIG. 4) is given as “reduced the behavioral response”.

As for `N=C(N)N/N=C/c1c(Cl)cccc1Cl` [guanabenz], the “pain behavioral response for thermal hyperalgesia” value in assay [1] (Example 6, FIG. 37, 1 mg/kg subcutaneous every day for 15 days, day 7) was “statistically significant result of decreasing pain responses”. Further, the “pain behavioral response for mechanical allodynia” value is listed as “decreased mechanical allodynia” in assay [2] (Example 6, FIG. 38, 1 mg/kg subcutaneous daily, day 8, compared to saline) and “decreased mechanical allodynia” in assay [2] (Example 6, FIG. 38, 5 mg/kg subcutaneous daily, day 15, compared to saline).

With `N=C(N)NC(=O)Cc1c(Cl)cccc1Cl` [guanfacine], the “pain behavioral response for thermal hyperalgesia” value in assay [1] (Example 5, FIG. 36, 5 mg/kg subcutaneous every day for 15 days, days 7 and 14) is “statistically significant result of decreasing pain responses”. In addition, in assay [2] (Example 5, FIG. 35, 5 mg/kg subcutaneous every day for 15 days, day 15, vs saline), the “pain behavioral response for mechanical allodynia” value is “statistically significant results of decreasing pain responses”.

With `Cc1cccc(C(C)c2cnc[nH]2)c1C` (centres unmarked) [medetomidine], the “pain behavioral response for thermal hyperalgesia” value in assay [1] (setting [3]) is “statistically significant result of decreasing pain responses”; in assay [1] (Example 5, FIG. 36, 200 micrograms/kg subcutaneous every day for 15 days, day 14), “statistically significant result of decreasing pain responses”. Moreover, the “pain behavioral response for mechanical allodynia” value in assay [2] (Example 5, FIG. 35, 200 micrograms/kg subcutaneous every day for 15 days, day 15, vs saline) is reported as “statistically significant results of decreasing pain responses”.

As for `Cc1cc(C(C)(C)C)c(O)c(C)c1CC1=NCCN1` [oxymetazoline], the “pain behavioral response for thermal hyperalgesia” value in assay [1] (Example 6, FIG. 37, 0.1 mg/kg subcutaneous every day for 15 days, day 7) was “statistically significant result of decreasing pain responses”; in assay [1] (Example 6, FIG. 37, 0.3 mg/kg subcutaneous every day for 15 days, days 7 and 14) it was “statistically significant result of decreasing pain responses”. The “pain behavioral response for mechanical allodynia” value in assay [2] (Example 6, FIG. 38, 0.1 mg/kg subcutaneous every day for 15 days, day 8 and 15, compared to saline) is reported as “decreasing pain responses”; in assay [2] (Example 6, FIG. 38, 0.3 mg/kg subcutaneous every day for 15 days, day 8 and 15, compared to saline), “decreasing pain responses”.

As to `CNC[C@H](O)c1cccc(O)c1` [phenylephrine], the “pain behavioral response for thermal hyperalgesia” value in assay [1] (Example 6, FIG. 37, 2 mg/kg subcutaneous every day for 15 days, day 7) is listed as “statistically significant result of decreasing pain responses”; in assay [1] (Example 6, FIG. 37, 10 mg/kg subcutaneous every day for 15 days, days 7 and 14) it was “statistically significant result of decreasing pain responses”. Also, in assay [2] (Example 6, FIG. 38, 10 mg/kg subcutaneous daily, day 8, compared to saline), the “pain behavioral response for mechanical allodynia” value is given as “decreased mechanical allodynia”.

As to `CC(NCCc1ccc(O)cc1)C(O)c1ccc(O)cc1` (centres unmarked) [ritodrine], the “pain behavioral response for thermal hyperalgesia” value in assay [1] (Example 7, FIG. 39, 2 mg/kg subcutaneous every day for 15 days, day 7, vs saline) is “statistically significant result of decreasing pain responses”; in assay [1] (Example 7, FIG. 39, 5 mg/kg subcutaneous every day for 15 days, day 14, vs saline) it was “statistically significant result of decreasing pain responses”. The “pain behavioral response for mechanical allodynia” value in assay [2] (setting [4]) was “statistically significant result of decreasing pain responses”.

For `CC(C)(C)NCC(O)c1ccc(O)c(CO)c1` (centres unmarked) [salbutamol], the “pain behavioral response for thermal hyperalgesia” value is on record as “statistically significant result of decreasing pain responses” in assay [1] (Example 7, FIG. 39, 5 mg/kg subcutaneous every day for 15 days, days 7 and 14, vs saline); “statistically significant result of decreasing pain responses” in assay [1] (Example 7, FIG. 39, 10 mg/kg subcutaneous every day for 15 days, days 7 and 14, vs saline). For the same molecule, the “pain behavioral response for mechanical allodynia” value in assay [2] (setting [4]) was “statistically significant result of decreasing pain responses”; in assay [2] (Example 7, FIG. 40, 10 mg/kg subcutaneous every day for 15 days, days 8 and 15, vs saline), “statistically significant result of decreasing pain responses”.

`CC(C)(C)NCC(O)c1cc(O)cc(O)c1` (centres unmarked) [terbutaline]: the “pain behavioral response for thermal hyperalgesia” value was “statistically significant result of decreasing pain responses” in assay [1] (Example 7, FIG. 39, 0.1 mg/kg subcutaneous every day for 15 days, days 7 and 14, vs saline); “statistically significant result of decreasing pain responses” in assay [1] (Example 7, FIG. 39, 0.5 mg/kg subcutaneous every day for 15 days, days 7 and 14, vs saline). Besides, in assay [2] (Example 7, FIG. 40, 0.5 mg/kg subcutaneous every day for 15 days, day 14, vs saline), the “pain behavioral response for mechanical allodynia” value was “statistically significant result of decreasing pain responses”.

On to `Clc1ccc2nsnc2c1NC1=NCCN1` [tizanidine], for which the “pain behavioral response for thermal hyperalgesia” value in assay [1] (setting [3]) is recorded as “statistically significant result of decreasing pain responses”. The “pain behavioral response for mechanical allodynia” value in assay [2] (Example 5, FIG. 35, 100 micrograms/kg subcutaneous every day for 15 days, day 15, vs saline) is listed as “statistically significant results of decreasing pain responses”.

Source of the values: patent US8420114B2, “Alpha and beta adrenergic receptor agonists for treatment of pain and / or inflammation” (Warsaw Orthopedic, Inc., priority 2008, dated 2013).
